Laboratory results as given in patent publication US11390637B2, “Salts of antiviral phosphonate analogues and process for preparation thereof” (CIPLA LIMITED, priority 2017, dated 2022).
Counter-ions that a name gives are not always drawn.

How the values were obtained:
[1] = In-vitro intrinsic dissolution of 200 mg pellets of API without excipients; assay type: physicochemical; details: for % release of active from fumarate salt pellet: Table 7; for % release of active from fumarate salt pellet / % release of Compound (I) from the respective Salts: 200 mg pellet, 0.01N HCl, 37° C., paddle 75 rpm; for % release of Compound (I) from the respective Salts: Table 8; for dissolution profile compared to other salts: from the data of Table 8
Protocol: A tableting mixture (200 mg) comprising solely salts of (((1-(6-amino-9H-purin-9-yl)propan-2-yloxy)methyl) (phenoxy) phosphoryloxy) methyl pivalate-prepared according to any one of the examples 1 to 10 (i.e. with no excipients) was prepared and compressed to a pellet using an automatic KBR press operating at a compression pressure of 2 tones for 2 minutes.
Similarly a tableting mixture (200 mg) comprising a solely TAF (i.e. with no excipients) was prepared and compressed to a pellet using an automatic KBR press operating at a compression pressure of 2 tones for 2 minutes.
A tableting mixture (200 mg) comprising solely TDF (i.e. with no excipients) was prepared and compressed to a pellet using an automatic KBR press operating at a compression pressure of 2 tones for 2 minutes.
In-vitro dissolution studies were performed on the 200 mg pellet in a LAB INDIA DISSO 2000.
The pellet was fixed in a PFTE holder, such that only the pellet surface came into contact with the dissolution medium. The PFTE loaded holder was placed in the dissolution vessel containing 900 ml of 0.1M of HCl having […] at 37±0.5° C. Two pellets were measured for each run of the design of the experiments. Stirring was performed with a paddle rotating at 75 rpm. […]
Dissolution Media: 0.01N HCl
Bath temperature: 37.5° C.
Sample Preparation: Pellets were prepared by pressing sample with 2 ton pressure for 2 min
Note: Aliquots were analysed on HPLC.
The concentration of (((1-(6-amino-9H-purin-9-yl)propan-2-yloxy)methyl) (phenoxy) phosphoryloxy) methyl pivalate was quantified by HPLC UV method at a maximum wavelength of 300 nm under the conditions as specified below:
Standard Preparation: 25 mg standard dissolved to 25 ml with dissolution medium. 5 ml of this solution diluted to 25 ml with dissolution medium. Further 5 ml of this solution was diluted to 10 ml with diluent.
Sample Preparation: 200 mg of Sample pellets were prepared and subjected to dissolution. 10 ml of Aliquot was removed from the dissolution basket at predetermined time intervals. 5 ml of these aliquot was diluted to 10 ml with Diluent.
200 mg of input API of fumarate salt of (((1-(6-amino-9H-purin-9-yl)propan-2-yloxy)methyl) (phenoxy) phosphoryloxy) methyl pivalate used for pellet preparation.
The percentage of (((1-(6-amino-9H-purin-9-yl)propan-2-yloxy)methyl) (phenoxy) phosphoryloxy) methyl pivalate (TD), Tenofovir Alafenamide (TAF) and Tenofovir Disoproxil (TDF) released from the respective fumarate salt tablet were plotted against time as shown in FIG. 19. The intrinsic dissolution rate was derived from the slope of this curve.
To measure the intrinsic dissolution of the Salts of (((1-(6-amino-9H-purin-9-yl)propan-2-yloxy)methyl) (phenoxy) phosphoryloxy) methyl pivalate, samples were measured to compare the influence of the different parameter settings. At appropriate time intervals, an automated sample collector removes aliquots from the dissolution medium for analysis. The time interval for sampling can vary, for example, from 5 to 120 minutes, depending on the properties of the drug and dissolution medium used. Suitable dissolution equipment for these operations includes LAB INDIA DISSO 2000. Bath temperature—37.5° C.
200 mg of input API of each fumarate, oxalate, phosphate, citrate, succinate and tartrate Salts of (((1-(6-amino-9H-purin-9-yl)propan-2-yloxy)methyl) (phenoxy) phosphoryloxy) methyl pivalate used for pellet preparation.
The percentage of (((1-(6-amino-9H-purin-9-yl)propan-2-yloxy)methyl) (phenoxy) phosphoryloxy) methyl pivalate released from the respective salts tablet were plotted against time as shown in FIG. 20. The intrinsic dissolution rate was derived from the slope of this curve.

[2] = Hygroscopicity (statement, no method described); assay type: physicochemical; details: in words
[3] = Solubility in physiologically acceptable solvents (statement, no method described); details: in words

Compound | % release of active from fumarate salt pellet ([1]; 5 min) | % release of active from fumarate salt pellet ([1]; 10 min) | % release of active from fumarate salt pellet ([1]; 15 min) | % release of active from fumarate salt pellet ([1]; 30 min) | % release of active from fumarate salt pellet ([1]; 45 min) | % release of active from fumarate salt pellet ([1]; 60 min) | % release of active from fumarate salt pellet ([1]; 90 min) | % release of active from fumarate salt pellet ([1]; 120 min) | % release of Compound (I) from the respective Salts ([1]; 5 min) | % release of Compound (I) from the respective Salts ([1]; 15 min) | % release of Compound (I) from the respective Salts ([1]; 30 min) | % release of Compound (I) from the respective Salts ([1]; 45 min) | % release of Compound (I) from the respective Salts ([1]; 60 min) | % release of Compound (I) from the respective Salts ([1]; 90 min) | % release of Compound (I) from the respective Salts ([1]; 120 min) | % release of Compound (I) from the respective Salts ([1]; 150 min) | % release of Compound (I) from the respective Salts ([1]; 180 min) | % release of Compound (I) from the respective Salts ([1]; 210 min) | % release of Compound (I) from the respective Salts ([1]; 240 min) | hygroscopicity [2] | further results
CC(C)OC(=O)OCOP(=O)(CO[C@H](C)Cn1cnc2c(N)ncnc21)OCOC(=O)OC(C)C [TDF, Tenofovir Disoproxil Fumarate, reference compound] | 8% | 5% | 7% | 13% | 19% | 26% | 37% | 50% | – | – | – | – | – | – | – | – | – | – | – | – | –
CC(Cn1cnc2c(N)ncnc21)OCP(=O)(OCOC(=O)C(C)(C)C)Oc1ccccc1.O=C(O)/C=C/C(=O)O (stereo not shown) [Fumarate, (((1-(6-amino-9H-purin-9-yl)propan-2-yloxy)methyl) (phenoxy)phosphoryloxy) methyl pivalate fumaric acid salt] | 7% | 5% | 6% | 12% | 18% | 24% | 35% | 45% | 3% | 7% | 12% | 18% | 24% | 35% | 45% | 56% | 66% | 75% | 83% | – | dissolution profile compared with TAF and TDF ([1]; in words, from the data of Table 7): slow dissolution profile than TAF and TDF
CC(C)OC(=O)[C@H](C)N[P@](=O)(CO[C@H](C)Cn1cnc2c(N)ncnc21)Oc1ccccc1 [TAF, Tenofovir Alafenamide Fumarate, reference compound] | 6% | 7% | 9% | 16% | 24% | 31% | 46% | 60% | – | – | – | – | – | – | – | – | – | – | – | – | –
CC(Cn1cnc2c(N)ncnc21)OCP(=O)(OCOC(=O)C(C)(C)C)Oc1ccccc1.O=C(O)CCC(=O)O (stereo not shown) [Succinate, (((1-(6-amino-9H-purin-9-yl)propan-2-yloxy)methyl) (phenoxy)phosphoryloxy) methyl pivalate succinic acid salt] | – | – | – | – | – | – | – | – | 3% | 3% | 16% | 23% | 30% | 45% | 59% | 74% | 85% | 90% | 92% | not hygroscopic | solubility in physiologically acceptable solvents [3]: readily soluble
CC(Cn1cnc2c(N)ncnc21)OCP(=O)(OCOC(=O)C(C)(C)C)Oc1ccccc1.O=P(O)(O)O (stereo not shown) [Phosphate, (((1-(6-amino-9H-purin-9-yl)propan-2-yloxy)methyl) (phenoxy)phosphoryloxy) methyl pivalate phosphoric acid salt] | – | – | – | – | – | – | – | – | 19% | 59% | 103% | 104% | 105% | 105% | 106% | 105% | 104% | 104% | 105% | not hygroscopic | dissolution profile compared to other salts ([1]; in words): fastest dissolution profile; solubility in physiologically acceptable solvents [3]: readily soluble
CC(Cn1cnc2c(N)ncnc21)OCP(=O)(OCOC(=O)C(C)(C)C)Oc1ccccc1.O=C(O)C(O)C(O)C(=O)O (stereo not shown) [Tartrate, (((1-(6-amino-9H-purin-9-yl)propan-2-yloxy)methyl) (phenoxy)phosphoryloxy) methyl pivalate tartaric acid salt] | – | – | – | – | – | – | – | – | 2% | 6% | 12% | 17% | 24% | 35% | 47% | 59% | 70% | 80% | 88% | – | –
CC(Cn1cnc2c(N)ncnc21)OCP(=O)(OCOC(=O)C(C)(C)C)Oc1ccccc1.O=C(O)C(=O)O (stereo not shown) [Oxalate, (((1-(6-amino-9H-purin-9-yl)propan-2-yloxy)methyl) (phenoxy)phosphoryloxy) methyl pivalate oxalic acid salt] | – | – | – | – | – | – | – | – | 2% | 4% | 7% | 10% | 15% | 23% | 31% | 40% | 46% | 53% | 60% | not hygroscopic | dissolution profile compared to other salts ([1]; in words): slowest dissolution profile; solubility in physiologically acceptable solvents [3]: readily soluble
